What was measured:
[1] = target: T1, purified cyclooxygenase Type 1 (COX I) (Ovis aries, UniProt P05979); assay: Cyclooxygenase (COX I) inhibition, purified enzyme; format: biochemical; conditions: 100 μM compound, arachidonic acid 100 μM, 2.0 min at 37° C., COX I from ram seminal vesicles
T1 construct: The COX I was purified from ram seminal vesicles; from tissue; host or cells: ram seminal vesicles
T1 sequence (P05979 25-600): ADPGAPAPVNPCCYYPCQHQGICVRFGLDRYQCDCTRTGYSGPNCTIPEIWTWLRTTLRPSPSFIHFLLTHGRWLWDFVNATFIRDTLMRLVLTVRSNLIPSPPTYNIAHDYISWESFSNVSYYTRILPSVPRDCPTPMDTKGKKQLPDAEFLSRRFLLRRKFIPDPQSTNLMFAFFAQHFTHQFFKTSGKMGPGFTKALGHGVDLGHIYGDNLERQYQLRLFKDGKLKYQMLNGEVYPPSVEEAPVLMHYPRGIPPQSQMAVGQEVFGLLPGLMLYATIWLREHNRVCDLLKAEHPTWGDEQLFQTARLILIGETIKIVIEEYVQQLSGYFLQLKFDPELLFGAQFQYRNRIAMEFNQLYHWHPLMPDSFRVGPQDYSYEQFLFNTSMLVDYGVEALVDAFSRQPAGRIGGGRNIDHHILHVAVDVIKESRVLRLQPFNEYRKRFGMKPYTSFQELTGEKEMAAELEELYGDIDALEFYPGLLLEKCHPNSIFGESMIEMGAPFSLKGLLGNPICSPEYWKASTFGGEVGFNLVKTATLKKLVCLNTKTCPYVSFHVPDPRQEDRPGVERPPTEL
Method: COX I catalyzes the formation of prostaglandins and thromboxane by the oxidative metabolism of arachidonic acid. Compounds of this invention, as well as a positive control, (sulindac sulfide) were evaluated to determine whether they inhibited purified cyclooxygenase Type 1 (see Table 3 below).
The COX I was purified from ram seminal vesicles, as described by Boopathy, R. and Balasubramanian, J. 239:371-377, 1988. COX I activity was assayed as described by Evans, A. T. et al., “Actions of Cannabis Constituents on Enzymes Of Arachidonate Metabolism Anti-Inflammatory Potential,” Biochem. Pharmacol., 36:2035-2037, 1987. Purified COX I was incubated with arachidonic acid (100 μM) for 2.0 min at 37° C. in the presence or absence of test compounds. The assay was terminated by the addition of TCA, and COX I activity was determined by absorbance at […].

[2] = test system: human colon carcinoma cell line, SW-480; assay: Sulforhodamine B (SRB) tumor cell growth inhibition assay; format: cell-based; conditions: SW-480 cells, six days continuous exposure; for inhibition at 100 µM: Homo sapiens, SW480, 144 h
Method: The compounds of this invention were assayed for their growth inhibitory activity on the human colon carcinoma cell line, SW-480 obtained from ATCC (Rockville, Md.), to ascertain the degree of growth inhibition (Skehan et al., J. Natl. Cancer Instit. 82:1107-1112, 1990). Growth inhibition of this cell line is indicative of a benefit on precancerous lesions and neoplasms. The cell line and growth assay employed for such experiments are well characterized, and are used to evaluate the anti-neoplastic properties of compounds (Piazza, Cancer Research Vol. 57, pp. 2452-2459, 1997). The assay is used by the United States National Cancer Institute in its screening program for new anti-cancer drugs.
Drug stock solutions were made in 100% DMSO and were then diluted with RPMI media for cell culture testing. All drug solutions were prepared fresh on the day of testing. The cultured cells were obtained at passage #99 and grown in RPMI media supplemented with 5% fetal calf serum, and 2 mM glutamine, […] penicillin, 100 U/ml streptomycin, and 0.25 μg/ml amphotericin. The cultures were maintained in a humidified atmosphere of 95% air and 5% CO2 at 37° C. The cultures were passaged at preconfluent densities using a solution of 0.05% trypsin and 0.53 mM EDTA. Cells were plated at 1000 cells/well for 96 well flat-bottom microtiter plates.
Tumor cell growth inhibition was assessed using the Sulforhodamine B (SRB) protein binding assay. In this assay, tumor cells were plated in 96-well plates and treated with drug-containing media for six days (continuous exposure). For each plate, 6 wells were designated as no treatment controls, six wells as vehicle (0.1% DMSO) controls, and the remaining wells for drug dilutions with three wells per drug concentration. At the end of the exposure period, the cells were fixed and stained with sulforhodamine B, a protein binding dye. The dye was then solubilized, and the optical density of the resulting solution was determined on a 96-well plate reader. The mean optical density of the treated wells was then divided by the mean optical density in the control wells (6 wells of each) to determine the effect of the drug on the cells. Dye intensity is proportional to the number of cells or amount of protein per well. The resultant “percent inhibition” values, which then represents the degree of growth inhibition, for the indicated compounds from the Examples are tabulated in Table 1.
For one compound of this invention, an IC50 value was determined. An IC50 value is equivalent to the concentration of compound needed to inhibit tumor cell growth by 50%. The IC50 value was obtained graphically by plotting and connecting the mean growth inhibition values for each drug concentration tested. The experiment included three wells per drug concentration. Concentration was plotted on a log scale on the X-axis.

Compound	inhibition at 100 µM [1] [%]	melting point [°C]	inhibition at 100 µM [2] [%]	COX I % Inhibition (100 μM) [1] [%]	% Growth Inhibition at 100 μM [2] [%]
C=CCSc1nnc(-c2ccccc2)c2ccccc12 [Example 2, 1-(2-Propenylthio)-4-Phenylphthalazine]	62	83	87		
CSc1ccc(/C=C2/C(C)=C(CC(=O)O)c3cc(F)ccc32)cc1 [Sulindac sulfide, sulindac sulfide, reference compound]	97				
CCSc1nnc(-c2ccccc2)c2ccccc12 [Example 35, 1-Ethylthio-4-Phenylphthalazine]		93			
COC(=O)Cc1nnc(Sc2ccccc2)c2ccccc12 [Example 19, Methyl-2-(4-Phenylthiophthalazinyl)acetate]				<25	61
Fc1ccc(CSc2nnc(-c3ccccc3)c3ccccc23)cc1 [Example 11, 1-(4-Fluorobenzylthio)-4-Phenylphthalazine]	< 25	104	76		
c1ccc(CSc2nnc(-c3ccccc3)c3ccccc23)cc1 [Example 1, 1-Benzylthio-4-Phenylphthalazine]	30	92	85		
Clc1cccc(CSc2nnc(-c3ccccc3)c3ccccc23)c1 [Example 4, 1-(3-Chlorobenzylthio)-4-Phenylphthalazine]	< 25	85	81		
c1ccc(-c2nnc(SCc3ccc4ccccc4c3)c3ccccc23)cc1 [Example 20, 1-(2′-Naphthylmethylthio)-4-Phenylphthalazine]				<25	<50
CC(C)(C)OC(=O)CSc1nnc(-c2ccccc2)c2ccccc12 [Example 21, 1-(t-Butyl 2′Mercaptoacetate)-4-Phenylphthalazine]					51

The next lines start with results.

inhibition at 100 µM [1] [%]	melting point [°C]	Compound	inhibition at 100 µM [2] [%]	COX I % Inhibition (100 μM) [1] [%]	% Growth Inhibition at 100 μM [2] [%]
81		O=S(=O)(Cc1ccccc1)c1nnc(-c2ccccc2)c2ccccc12 [Example 18, 1-(Benzylsulfonyl)-4-Phenylphthalazine]			
73	147	CSc1nnc(-c2ccccc2)c2ccccc12 [Example 3, 1-Methylthio-4-Phenylphthalazine]	< 50		
< 25		Clc1cccc(CSc2nnc(-c3ccccn3)c3ccccc23)c1 [Example 22, 1-(3-Chlorobenzylthio)-4-(2-Pyridyl)-Phthalazine]	88		

Source: patent publication US6486158B1, “[4,5]-fused-3,6-disubstituted-pyridazines with sulfur-containing substituents in position three for the treatment of neoplasia” (Cell Pathways, Inc., priority 1998, dated 2002)
